Results taken from paper PMC10210183 (ACS Omega, 2023).

Biological target: eqBChE (Equus caballus, UniProt P81908)
Experiment: biochemical
Conditions: read-out: BChE % Inhibition ± SD @ 1 μM, eqBChE, 1 μM

eqBChE, sequence (P81908 whole entry): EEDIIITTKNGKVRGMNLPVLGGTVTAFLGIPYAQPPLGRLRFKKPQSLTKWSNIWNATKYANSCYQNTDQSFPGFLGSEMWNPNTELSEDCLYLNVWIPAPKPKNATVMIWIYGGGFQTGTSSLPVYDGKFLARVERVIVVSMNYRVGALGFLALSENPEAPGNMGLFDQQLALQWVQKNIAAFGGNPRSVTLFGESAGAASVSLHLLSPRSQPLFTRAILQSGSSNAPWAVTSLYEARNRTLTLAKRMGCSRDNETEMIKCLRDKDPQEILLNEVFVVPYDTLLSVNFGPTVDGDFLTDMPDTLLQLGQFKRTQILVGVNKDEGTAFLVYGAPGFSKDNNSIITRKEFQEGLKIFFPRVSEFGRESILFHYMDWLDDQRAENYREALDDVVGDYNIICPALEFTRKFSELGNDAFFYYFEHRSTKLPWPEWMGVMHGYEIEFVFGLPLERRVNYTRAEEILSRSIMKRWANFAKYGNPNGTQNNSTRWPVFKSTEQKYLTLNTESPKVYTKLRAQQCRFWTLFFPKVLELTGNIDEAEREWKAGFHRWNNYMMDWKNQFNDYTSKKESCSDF

Structure (SMILES)	inhibition at 1 µM [%]
COc1cc(/C=C/c2cc[n+](Cc3ccccc3)cc2)cc(OC)c1 [Compound 7a, (E)-1-Benzyl-4-(3,5-dimethoxystyryl)pyridin-1-ium bromide]	20
COc1ccc2cc(/C=C/c3cc[n+](Cc4ccccc4)cc3)ccc2c1 [Compound 7aq, (E)-1-Benzyl-4-(2-(6-methoxynaphthalen-2-yl)vinyl)pyridin-1-ium bromide]	60
